Measurements taken from patent US20190021992A1, “NEW IMPROVED COMPOSITION COMPRISING AT LEAST ONE CADOTRIL” (Johnson & Johnson Consumer Inc., priority 2016, published 2019).
“And” between values parts separate entries of the source, which are not always exact repeats. Identical values can stand only once.

Assay: Oral administration pharmacokinetic studies in rats (thiorphan plasma concentration, HPLC)
Format: in vivo, Sprague Dawley rats
Procedure: Formulations were administered to rats at doses expected to be pharmacologically effective for estimation of the bioavailability. Blood was drawn at specified time points and plasma concentration of thiorphan was assessed.
Animals: Sprague Dawley rats, approximate weight 250 g. Animal preparation: Deprived of food (but not of water) during 18 h preceding dosing. Mode of administration: thiorphan (i.v.) and racecadotril (p.o.) by oral gavage. Blood sampling volume: 300 μl/per sample.
Blood was drawn at specified time points. Plasma was immediately frozen and kept at −80° C. for assessment of thiorphan concentration by HPLC.
Formulation nr. 8 (example 2) was administered to rats p.o. at dose of 20 mg/kg. One group of rats was given thiorphan i.v. at a dose of 13.4 mg/kg as a reference. […]

[1] = individual rats, thiorphan i.v. 13.4 mg/kg, 13.4 mg/kg

O=C(O)CNC(=O)C(CS)Cc1ccccc1 (centres unmarked) [Thiorphan, thiorphan]
AUC(0-inf) (Sprague Dawley, rat, plasma, iv, 13.4 mg/kg, average of 3 rats, thiorphan i.v. 13.4 mg/kg, read-out: AUCinf (thiorphan), Avg): 1710 ng·h/mL
Cmax (Sprague Dawley, rat, plasma, iv, 13.4 mg/kg, individual rats, thiorphan i.v. 13.4 mg/kg): 15900 ng/mL
Tmax (Sprague Dawley, rat, plasma, iv, individual rats, thiorphan i.v. 13.4 mg/kg): 1.98 min
AUCinf (thiorphan) [1]: 2403 ng·h/mL and 1857 ng·h/mL and 871 ng·h/mL
AUCt (thiorphan) [1]: 2392 ng·h/mL and 1843 ng·h/mL and 857 ng·h/mL
Cmax (thiorphan) [1]: 17649 ng/mL and 21914 ng/mL
T_half (thiorphan) [1]: 1.31 h and 0.57 h and 1.81 h
Rel BA (%) (thiorphan i.v. 13.4 mg/kg (reference)): 100%
